melting point	SMILES
190 to 191 °C	CC(=O)Nc1ccc([N+](=O)[O-])c(C)c1C(=O)O
124 to 125 °C	CN(N)C1=NOCc2ccc(Cl)cc21
100 to 125 °C	CC(COc1ccc(CC2SC(=O)NC2=O)cc1)NCC(O)c1cccc(Cl)c1 (stereo unspecified)
121 to 125 °C	COc1cc2c(c3c1OC(C)(C)C3)C(c1ccccc1)=NC(C)(CN1C(=O)c3ccccc3C1=O)C2 (stereo unspecified)
101 °C	CCCCCCCCCCCCCCCCCCN=Cc1ccc(O)cc1
194 to 195 °C	CN(Cc1ccc(NC(=O)C2=Cc3cc(-c4ccsc4)ccc3OCC2)cc1)C1CCOCC1
218 to 220 °C	Cc1ccc([N+](=O)[O-])c(NC=C2C(=O)OC(C)(C)OC2=O)c1
180 to 182 °C	CCC(CC)COc1ccc(-n2cc(C(=O)O)cn2)cc1C#N
150 to 151 °C	COc1ccc(C2(O)c3cc(NC(=O)CC(C)(C)C)c(C)c(C)c3OC2(C)C)c(OC)c1 (stereo unspecified)
212 to 213 °C	Cn1cc2c(n1)-c1c(Cc3ccccc3)sc(C(N)=O)c1CC2
232 to 234 °C	NC(=O)[C@@H]1[C@H](Nc2c(Br)cnc3[nH]c(-c4cccc(N5CCOCC5)c4)nc23)[C@H]2C=C[C@@H]1C2
61 to 63 °C	CCCCc1oc2ccc(C(=O)OC)cc2c1C(=O)c1ccc(OCCCNCC(C)(C)C)cc1
162 to 165 °C	O=C(O)CCc1c([N+](=O)[O-])cc(O)c(O)c1[N+](=O)[O-]
225 °C	CC(ON=c1c2nccc3cccc(c32)n2cccc12)C(=O)O (stereo unspecified)
92 to 93.5 °C	CC(C(=O)N(C)C)n1cc(Cl)c(-c2ccc(Cl)cc2)n1 (stereo unspecified)
96 to 97 °C	CCC(CC)(CC(=O)Nc1cccc(OCc2ccc3ccc(OC)cc3n2)c1)C(=O)O
266 to 268 °C	CCOC(=O)c1c2n(c3cc(N4CCN(C(C)=O)CC4)c(Cl)cc3c1=O)CS2
138 to 140 °C	COc1ccc(C(=Cc2c(Cl)cncc2Cl)c2ccccc2)cc1OC1CCCC1
91 to 92 °C	CCn1c(=O)cc(C)c2cc(C(O)(C(F)(F)F)C(F)(F)F)ccc21
109 to 110 °C	Cc1nc(-c2ccccc2)c(CC(C)C(=O)O)o1 (stereo unspecified)
119 to 121 °C	CON1CCC2(CC1)C(OCc1ccccc1)=C(c1c(C)cc(C)cc1C)C(=O)N2CC1CC1
86 °C	CC1(C)C(C=C(Cl)Cl)C1C(=O)O (stereo unspecified)
110 to 112 °C	CC(=O)OCCSc1nc(C(C)(C)C)nn1C(=O)N(C)C
80 to 81 °C	O=c1n(CCCF)nnn1-c1cc([N+](=O)[O-])c(Cl)cc1F
64 to 66 °C	O=C1c2ccccc2S(=O)(=O)N1CCCCCCOc1ccccc1

melting point	SMILES
185 to 188 °C	CCn1c(C(O)(C2CC2)C2CC2)nc(-c2ccncc2)c1-c1ccc(Cl)cc1
121 to 123 °C	CC(=O)OCC1OC(n2c(=O)sc3cnc(N)nc32)C(OC(C)=O)C1OC(C)=O (stereo unspecified)
234 to 236 °C	CC1(C(=O)c2c[nH]c3ncc(-c4ccc(N5CCCCC5)cc4)nc23)CCCCC1
167 to 169 °C	CC(=O)c1cc(=O)n(CCC(C(=O)NO)N(C)S(=O)(=O)c2ccc(Oc3ccccc3)cc2)c(=O)[nH]1 (stereo unspecified)
160 to 161 °C	CCOC(=O)C1=CC2(CCC1S(=O)(=O)Nc1ccc(F)cc1Cl)SCCS2 (stereo unspecified)
215 to 216 °C	Cc1nnc(-c2ccc3occ(-c4cn[nH]c4)c3c2)o1
138 to 139 °C	Oc1cccc(C2CNC3(CCCCC3)O2)c1 (stereo unspecified)
106 to 107 °C	CCCC[C@H](NC(=O)[C@H](CC(C)C)NC(=O)c1c(F)cccc1C(F)(F)F)C(=O)CSCc1ccco1
208 to 214 °C	CCCc1c(COc2ccc(C(=O)c3cccc(-c4nnn[nH]4)c3)cc2)ccc(C(C)=O)c1O
186 °C	Nc1cc(-n2ncc(Cl)c(Cl)c2=O)c(F)cc1Cl
75 °C	COC(=O)CCCOc1cc([N+](=O)[O-])c(C=O)cc1OC
169 to 172 °C	OCC1N=c2c(ccc3c2=CC=N3)O1 (stereo unspecified)
86 to 88 °C	COc1cc(OC)cc(N2CCN(C(=O)N(C)c3cc(C)c(C)cc3OC)CC2)c1
192 °C	Cc1cccc(NC(=O)NC(CC(N)=O)C(=O)N(CC(=O)OC(C)(C)C)c2ccccc2)c1 (racemic)
140 to 142 °C	CCN(CC)Cc1cc(C(N)=O)cc(Br)c1N
> 250 °C	COc1ccc2c(c1)nc(O)c1nncn12
188 °C	FC(F)(F)c1cc(-c2ccc(Cl)cc2)nc2c(-c3cccnc3)cnn12
130 °C	CC(C)c1ccc(N(Cc2cnn(Cc3ccccc3)c2)C(=O)C2CCCc3c(O)cccc32)cc1 (stereo unspecified)
71 °C	CSC(=C[N+](=O)[O-])NCCSCc1ccc(CN(C)C)o1
153 to 154 °C	CC(C)(C)Sc1cccc(-c2nc(=O)c3ccccc3s2)n1
210 to 212 °C	O=C(Nc1ccc(OC(F)(F)F)cc1)N[C@H]1CC[C@@H](Oc2ccc(C(=O)O)cc2)CC1
135 °C	CCOC(=O)c1c(NC(=O)NC(C)C)sc(C)c1C
108 to 110 °C	COc1ccc(C2SCC(C(=O)O)N2C(=O)c2ccccc2)cc1 (stereo unspecified)
224 to 226 °C	COc1cc2ccc(C(=O)N3CCN(C(=O)c4cc(OC)c(OC)c(OC)c4)CC3)cc2cc1OC
80 °C	CCCCCCOc1ccc(C=[N+]([O-])CCCCCC[N+]([O-])=Cc2ccc(OCCCCCC)cc2)cc1

melting point	SMILES
108 to 110 °C	CC1=C(/C=C/C(C)=C/C=C/C(C)=C\C(=O)O)C(C)(C)C(O)C=C1 (stereo unspecified)
142 to 144 °C	O=C(O)CCCNC(=O)c1ccccc1NC(=O)c1ccccc1[N+](=O)[O-]
43 to 46 °C	COC(=O)c1cc(Br)ncc1F
162 to 163 °C	CCc1noc(-c2cn(-c3ccccn3)cn2)n1
166 to 167 °C	O=C1Nc2ccccc2N(C(=O)N2CCCC(CCCN3CCCCC3)C2)c2ncccc21 (stereo unspecified)
157 to 159 °C	CC1(C)OCC(=CCn2cnc3c(Cl)nc(N)nc32)CO1
122 °C	CN(C(=O)C(F)(F)F)c1cnn(-c2cccc(C(F)(F)F)c2)c(=O)c1-c1cccc(C(F)(F)F)c1
114 to 115 °C	CC(C)(C)OC(=O)NC1CCN(Cc2ccccc2)C1 (stereo unspecified)
130 to 132 °C	Clc1ccc(C=Cc2ccc(CBr)cc2)cc1
56 to 57 °C	CCOC(=O)Cc1cc2cc(Br)ccc2s1
101 to 103 °C	Clc1ccc(CCCN2CCc3cc(OC[C@H]4CO[C@](Cn5ccnc5)(c5ccc(Cl)cc5)O4)ccc3C2)cc1 (racemic)
185 to 188 °C	N#Cc1ccc(C(N2CCN(c3ncccn3)CC2)N2CCCC2=O)cc1 (stereo unspecified)
263 to 264 °C	O=C1OCc2c(c3cc(-c4ccc(Cl)cc4)ccc3n2Cc2ccccc2)C1=O
70 to 73 °C	NS(=O)(=O)c1c(CF)nsc1OCC(F)(F)F
172 to 173 °C	Cc1ccc(C(N)=S)nc1
157 to 159 °C	O=C(NC(=O)c1ccco1)NC1CCN(Cc2ccc3ccccc3c2)CC1
109 to 110 °C	c1cnc(N2CCN(Cc3ccc4ccccc4c3)CC2)nc1
139 to 140 °C	O=c1cc(-c2ccncn2)nc2n1CCCCC2C1CC1 (racemic)
227 to 228 °C	Cc1ccc2c(c1)C(=O)N1CCN=C1N2N1CCOCC1
> 215 °C	CCCCCNC1=CC(=O)C(=O)c2ccccc21
129 to 130 °C	COC(=O)Cc1c(C(=O)OC)ccn1CCBr
149 to 151 °C	CN1CC(=O)N(c2cccnc2)C1=S
252 °C	O=C(O)c1ccc(C=Cc2ccccc2)cc1
105 to 107 °C	CCOC(=O)/C(N)=C/C(=O)/C=C/c1ccc(Cl)cc1
92 to 94 °C	COC1(c2ccco2)CC2=C(C=C1C(F)(F)F)N(C(=O)Nc1cccnc1)CC2 (stereo unspecified)

melting point	SMILES
76 to 77 °C	CCOC(=O)C=Cc1cncc(OCc2ccccc2)c1
226 to 228 °C	CCOC(=O)NN=Cc1nc(C(C)(C)C)[nH]c1C
186 to 188 °C	O=C(O)Cc1ccc2c(c1)Cc1ccccc1C(=O)C2
152 to 154 °C	CCCNC(=O)C1CC(=O)N(c2cc(C(F)(F)F)cc(C(F)(F)F)c2)C1 (stereo unspecified)
248 to 250 °C	Cc1ccc(N2CN(c3ccccc3)C3=NN=CC3=C2N)cc1
160 °C	CC(C)(C)NS(=O)(=O)c1ccccc1C(O)c1ccccc1 (stereo unspecified)
200 to 202 °C	O=C(O)Cc1nn(CC(=O)Nc2cc(C(F)(F)F)ccc2Br)c(=O)c2ccccc12
236 to 238 °C	N#Cc1ccc(-c2ccc(Cl)nn2)cc1
123 to 125 °C	CCC(=O)Oc1cc(C(C)C)ccc1C1(OC(=O)CC)C(=O)c2ccccc2C1=O
171 to 172 °C	O=C(NO)c1ccc(CNC(=O)c2[nH]c(-c3cccs3)cc2-c2ccc(O)cc2)cc1
152 to 155 °C	COc1cccc([C@H]2O[C@H](CC(=O)NCP(=O)(O)O)C(=O)N(CC(C)(C)C)c3ccc(Cl)cc32)c1OC
258 to 260 °C	Cc1cc(=O)c(-c2ccc(Oc3ccc(C(F)(F)F)cc3)cc2)c(C)[nH]1
61 to 62.5 °C	COC(=O)/C=C/c1ccc(C=O)s1
134 to 136 °C	CC(C)=CCn1ncc(-c2ccc(S(N)(=O)=O)c(F)c2)c(-c2ccc(F)cc2)c1=O
147 to 150 °C	CCOC(=O)c1ccc(N2CCN(C(=O)C=Cc3cc(C(C)(C)C)c(O)c(C(C)(C)C)c3)CC2)cc1
86 to 88 °C	COc1cc(-n2nc(C)n(C(F)F)c2=O)c(F)cc1Cl
110 to 111 °C	O=C(NCCO)c1cc(-c2cccc3cc(Cc4cccc(C(F)(F)F)c4)sc23)ncc1F
117 to 119 °C	Ic1cnc(-c2cccs2)s1
126 to 129 °C	CSc1c(C(=O)O)ccc(Br)c1F
212 to 213 °C	Cc1nc(N2C[C@@H](C)N(Cc3cc(F)cc(F)c3)C2=O)sc1C(N)=O
132 to 134 °C	O=C(O)CCCC=Cc1nn(-c2ccc(Cl)cc2)c2c1CCC2
112 °C	CC(C)c1nc(Cl)c2c(-c3ccc([N+](=O)[O-])o3)nn(C)c2n1

SMILES	melting point
CC(C)CCN1CNC(=O)C12CCNCC2	103 to 105 °C
CNC1=Nc2ccsc2C(c2ccccc2)=NC1	223 to 227 °C
O=C(O)C(Cl)=C(Cl)C(=O)N(CCCl)CCCl	107 to 110 °C
O=C(Oc1ccccc1)c1ncn2c1[C@@H]1CCCN1C(=O)c1c(Cl)cccc1-2	211 to 212 °C
